The source of these data is a melting point compilation (Tetko et al.; mined from patent text by program, amines drawn as free bases though some values may be those of a salt).

By melting point is commonly meant the temperature, or range, at which the solid turns liquid.

Some results are limits rather than exact numbers.

`CC(C)Cn1c(CONC(=O)NC(C)C)nc2c(N)nc3ccccc3c21` came in with a melting point of 218 to 219 °C.

In the case of `Cn1cncc1C(N)(c1ccc([N+](=O)[O-])cc1)c1ccc2c(c1)c(-c1cccc(Cl)c1)cc(=O)n2C` (stereo unspecified), the melting point worked out at 258 °C.

Compound `CC(C)Oc1cc(Oc2ccc(S(C)(=O)=O)cn2)cc2cc(C3=NCC(CC(C)(C)O)S3)[nH]c12` (stereo unspecified) returned a melting point of 151 to 153 °C.

`COc1cc2ncnc(Nc3cccc(O)c3)c2cc1OC`: the melting point lay within 256 to 257 °C.

In turn, `CCOCC1OC(n2cnc3c(NC4CCCC4)ncnc32)C(O)C1O` (stereo unspecified) displayed a melting point of 134 to 136 °C.

For the compound `CCOC(=O)C(C)Cc1ccnc(-c2nc(=O)c3ccccc3s2)c1` (stereo unspecified), the melting point is 120 to 121 °C.

Consider `CCCC(=O)COS(=O)(=O)c1c(C)cc(C)c(C)c1C`, for which the melting point was in the range of 49 to 50 °C.

`Cc1ncnc(C)c1C(=O)N1CC2CN(CCC(NC(=O)C3CCCC3)c3ccccc3)CC2C1` (stereo unspecified) returned a melting point of 48 to 49 °C.

`CCCCCCOc1ccc(CCCCCCCCC(=O)NO)cc1` registered a melting point of 94 to 96 °C.

As for `CCOP(=O)(OCC)C1CCc2cc(C(F)(F)F)cc3[nH]c(=O)c(=O)n1c23` (stereo unspecified), the melting point stood at 161 °C.

Compound `O=C(CCCC(Cl)c1ccc(Cl)cc1)Nc1ccccc1` (stereo unspecified) came in with a melting point of 99 to 102 °C.

With `CC(C)(C)CC(=O)Nc1ccc2ncnc(N)c2c1`, the melting point was 273 to 274 °C.

Regarding `COc1c2c(cc3ccccc13)C(=O)NC2=O`, the melting point lay within 216 to 220 °C.

For `O=C(c1cccs1)c1cnn2c(-c3cccc([N+](=O)[O-])c3)ccnc12`, the melting point fell in the range of 199 to 201 °C.

As to `CCCCc1nn(-c2cc(NC(=O)NCCC)ccc2Cl)c(=O)n1Cc1ccc(-c2ccccc2S(=O)(=O)NC(=O)c2ccccc2Cl)cc1`, the melting point is greater than 208 °C.

The compound `CC(C)NCC(=O)N1c2ccccc2N(C)S(=O)(=O)c2ccccc21` displayed a melting point of 115 to 117 °C.

As to `O=C(N1CCCC1)N1Cc2c(-c3ccc(F)cc3)ncn2-c2ccccc21`, the melting point lay within 217 to 218 °C.

Compound `COc1ccc(C(=O)CBr)cc1C12CC3CC(CC(C3)C1)C2` registered a melting point of 140 to 141 °C.

`O=[N+]([O-])C(CN1CCN(c2ccccc2)CC1)c1ccccc1` (stereo unspecified) had a melting point of 76 °C.

Compound `O=c1[nH]cnc2c1cnn2CC(O)c1ccccc1` (stereo unspecified) displayed a melting point of 270 to 271 °C.

The compound `C[C@@H](Cc1ccc(OCC(=O)O)cc1)NS(=O)(=O)c1ccccc1` displayed a melting point of 89 to 91 °C.

For `CC(=O)Nc1cccc(OCCCCC(=O)O)c1C=O`, the melting point was 119 to 121 °C.

In turn, `Cc1sc(-c2ccccc2)nc1COc1cc(COc2ncccc2CC(=O)O)on1` displayed a melting point of 109 to 110 °C.

The compound `Cc1cc(C)n(Cc2ccc3c(c2)Cc2c(-c4ccsc4)n[nH]c2-3)n1` had a melting point of 257 to 260 °C.

The compound `CN(C)c1ccc(-c2cc(N(C(=O)OC(C)(C)C)C(=O)OC(C)(C)C)nn2C(=O)OC(C)(C)C)cc1` returned a melting point of 64 to 65 °C.

As to `O=C1O[C@H]2C[C@@H]1CC[C@@H]2I`, the melting point lay in the range of 130 to 131 °C.

`CC[C@H](C)[C@H](OCc1ccccc1)[C@H]1[C@H]([N+](=O)[O-])[C@@H]([C@@H](OCc2ccccc2)C(C)C)N[C@@H]1C(=O)O` came in with a melting point of 172 to 174 °C.

Compound `Cc1ccc2cccc(OCc3c(Cl)ccc(S(=O)(=O)N4CCC[C@H]4C(=O)NCCCNC(=O)c4ccc(C#N)cc4)c3Cl)c2n1` came in with a melting point of 78 to 80 °C.

Take `CC(C)(C)c1ccc(CN(O)Cc2ccc(C(C)(C)C)cc2)cc1`: the melting point is 108 to 110 °C.

As for `Cc1ccc(NC(=O)c2ccc3ncccc3c2)cc1NC(=O)c1ccc(OCc2ccccc2)cc1`, the melting point lay within 227 to 228 °C.

`C[C@](O)(COc1ccc(C#N)cc1)C(=O)Nc1ccc(C#N)c(C(F)(F)F)c1`: the melting point lay within 92 to 94 °C.

Turning to `O=C1Nc2cccc(-c3cccc([N+](=O)[O-])c3)c2/C1=C/c1ccc[nH]1`, the melting point is 197 to 199 °C.

Turning to `COCc1cc2c(-c3ccc(C(F)(F)F)n(C)c3=O)c(F)cc(Cl)c2o1`, the melting point lay within 136 to 137 °C.

`O=C1c2ccccc2CN1C1CCN(C/C=C\CC2c3ccccc3-c3ccccc32)CC1` registered a melting point of 112 to 116 °C.

The compound `CNc1nc(-c2cccc(NC(=O)c3ccc(OC)c(OC)c3)c2)c2cc(OC)c(OC)cc2n1` returned a melting point of 128 to 130 °C.

Regarding `COc1ccccc1C1(C(C)(C)O)CCN(C)CC1`, the melting point lay in the range of 110 to 111 °C.

The compound `COc1cc2c(c(OC)c1/C=C/c1ccc(C=O)cc1)C(C)(C)CCC2(C)C` displayed a melting point of 108 °C.

In turn, `Nc1c(-c2cc(Cl)ccc2O)c2cc(Cl)ccc2[nH]c1=O` came in with a melting point of 184 to 185 °C.

On to `COc1ccc(CNc2cc(OCc3ccccn3)ccc2C(=O)c2cc(OC)c(OC)c(OC)c2)cc1Cl`, for which the melting point fell in the range of 142 to 144 °C.

`CCOC(=O)C1=C(COCC(C)(O)Cn2cnnc2)NC(C)=C(C(=O)OC)C1c1cccc(Cl)c1Cl` (stereo unspecified) had a melting point of 172 to 176 °C.

In the case of `CC1CCC(=NNc2ccccc2)c2ncc(C(=O)NN)c(=O)n21` (stereo unspecified), the melting point lay within 205 to 207 °C.

The compound `CN1CCC(c2c[nH]c3ccc(NC(=O)c4ccc(C#N)cc4)nc23)CC1` registered a melting point of 129 to 134 °C.

Regarding `Cn1nc(-c2c(F)cccc2Cl)nc1-c1cccc([N+](=O)[O-])c1Cl`, the melting point was in the range of 112 to 114 °C.

`CN1CCN(CCO)Cc2ccc(Nc3ncc(Cl)c(N[C@@H]4CCCC[C@H]4NS(C)(=O)=O)n3)cc21` came in with a melting point of 181 to 190 °C.

`Nc1nc(CCCCN2CCN(c3ncccn3)CC2)cs1` returned a melting point of 101 to 104 °C.

The compound `O=C(Nc1ccc2[nH]c(=O)sc2c1)C(=O)N1CCC(Cc2ccc(F)cc2)CC1` gave a melting point of 224 to 226 °C.

Consider `O=C(O)c1ccc(-c2nc(-c3cc(Cl)sc3Cl)cs2)cc1`, for which the melting point lay in the range of 266 to 267 °C.

Consider `NC(=O)C1CCc2[nH]c3ccc(F)c(Cl)c3c2C1` (stereo unspecified), for which the melting point was in the range of 226 to 227 °C.

`CNC(=S)C1(c2cc(C)ccn2)CCCS1` (stereo unspecified) gave a melting point of 181 °C.

`CC(=O)c1ccc(-c2nc(O)c(C)s2)cc1`: the melting point was in the range of 219 to 220 °C.

`O=C(O)c1c(F)cc(F)c(F)c1C(=O)O` came in with a melting point of 153 to 155 °C.

`COC(=O)SN(C(=O)NC(=O)c1c(F)cccc1F)c1ccc(Oc2ccc(C(F)(F)F)cc2Cl)cc1` had a melting point of 108 to 109 °C.

The compound `NC(=O)c1cncc(N)c1` registered a melting point of 263 to 264 °C.

`O=C(N[C@H](Cc1cccc(OCC(F)(F)C(F)F)c1)[C@@H](O)c1ccc(F)cc1)c1ccc(F)c2ccccc12` (racemic) came in with a melting point of 160 to 161 °C.

As to `CC(NC(=S)NC(COC(=O)C(C)(C)C)Cc1ccccc1)c1ccc([N+](=O)[O-])cc1` (stereo unspecified), the melting point is 99 to 100 °C.

`COCc1c(S(C)(=O)=O)ccc(C(=O)C2SCCCC2=O)c1C` (stereo unspecified) yielded a melting point of 152 to 154 °C.

`O=C1N(Cc2ccccn2)c2ccccc2C12COc1cc3nccnc3cc12` (stereo unspecified) displayed a melting point of 232 to 233 °C.

For the compound `CCOC(=O)c1ncc2[nH]c3ccc(Oc4ncccn4)cc3c2c1COC`, the melting point is 128 to 129 °C.

Take `CC(C)c1ccc(-n2c(CC(=O)O)c(C(=O)O)c3cc(Oc4cccc(Cl)c4)ccc32)cc1`: the melting point was in the range of 176 to 182 °C.

Consider `CC(Br)c1ccc(C(=O)c2cccs2)cc1` (stereo unspecified), for which the melting point was 71.1 °C.

With `CNC1=NN(c2cccc(Cl)c2)CC1C` (stereo unspecified), the melting point lay within 75 to 76 °C.
